Legend:
Assay in all cases: relative viability (nuclei count vs DMSO), 5 days (fraction); higher = more cells survive
Palbociclib + Foretinib = compound: CC(=O)c1c(C)c2cnc(Nc3ccc(N4CCNCC4)cn3)nc2n(C2CCCC2)c1=O [Palbociclib] + COc1cc2c(Oc3ccc(NC(=O)C4(C(=O)Nc5ccc(F)cc5)CC4)cc3F)ccnc2cc1OCCCN1CCOCC1 [Foretinib] (partner 0.25 µM)
In short: (§1)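 Lung cancer cell lines were pin-tool dosed in 1536-well plates on the day after seeding, with either a lone drug or a fixed anchor-drug dose plus five library-drug doses (not always all listed) in √10 steps. Nuclei were counted on 4× images after 5 days. Relative viability is the ratio of treated-well to vehicle-well nuclei counts, with each value a median of duplicate plates.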

Palbociclib + Vorinostat = compound: CC(=O)c1c(C)c2cnc(Nc3ccc(N4CCNCC4)cn3)nc2n(C2CCCC2)c1=O [Palbociclib] + O=C(CCCCCCC(=O)Nc1ccccc1)NO [Vorinostat] (partner 1 µM)
In short: as §1

Palbociclib + Phenformin = compound: CC(=O)c1c(C)c2cnc(Nc3ccc(N4CCNCC4)cn3)nc2n(C2CCCC2)c1=O [Palbociclib] + N=C(N)NC(=N)NCCc1ccccc1 [Phenformin] (partner 250 µM)
In short: as §1

Palbociclib + OSI-027 = compound: CC(=O)c1c(C)c2cnc(Nc3ccc(N4CCNCC4)cn3)nc2n(C2CCCC2)c1=O [Palbociclib] + COc1cccc2cc(-c3nc([C@H]4CC[C@H](C(=O)O)CC4)n4ncnc(N)c34)[nH]c12 [OSI-027] (partner 0.5 µM)
In short: as §1

Cell Line	relative viability (Palbociclib + Foretinib; first compound 0.01 µM)	relative viability (Palbociclib + Foretinib; first compound 0.03162 µM)	relative viability (Palbociclib + Foretinib; first compound 0.1 µM)	relative viability (Palbociclib + Foretinib; first compound 0.3162 µM)	relative viability (Palbociclib + Foretinib; first compound 1 µM)	relative viability (Palbociclib + Vorinostat; first compound 0.01 µM)	relative viability (Palbociclib + Vorinostat; first compound 0.03162 µM)	relative viability (Palbociclib + Vorinostat; first compound 0.1 µM)	relative viability (Palbociclib + Vorinostat; first compound 0.3162 µM)	relative viability (Palbociclib + Vorinostat; first compound 1 µM)	relative viability (Palbociclib + Phenformin; first compound 0.01 µM)	relative viability (Palbociclib + Phenformin; first compound 0.03162 µM)	relative viability (Palbociclib + Phenformin; first compound 0.1 µM)	relative viability (Palbociclib + Phenformin; first compound 0.3162 µM)	relative viability (Palbociclib + Phenformin; first compound 1 µM)	relative viability (Palbociclib + OSI-027; first compound 0.01 µM)	relative viability (Palbociclib + OSI-027; first compound 0.03162 µM)	relative viability (Palbociclib + OSI-027; first compound 0.1 µM)	relative viability (Palbociclib + OSI-027; first compound 0.3162 µM)	relative viability (Palbociclib + OSI-027; first compound 1 µM)
NCI-H460	1.01	0.969	0.886	0.8	0.536	0.669	0.604	0.454	0.369	0.115	0.537	0.411	0.409	0.333	0.149	0.708	0.531	0.366	0.376	0.159
NCI-H520	0.837	0.563	0.522	0.551	0.373	0.728	0.57	0.565	0.47	0.372	0.5	0.321	0.348	0.407	0.227	0.21	0.228	0.203	0.236	0.212
NCI-H596	0.996		0.836	0.821	0.953	0.656	0.655	0.589	0.768	0.57	0.982		0.757	0.712	0.673	0.681		0.761	0.649	0.809
NCI-H647	1.21	1.17	1.13	1.07	0.964	0.576	0.313	0.616	0.409	0.458	0.639	0.382	0.379	0.464	0.257	0.788	0.496	0.652	0.636	0.362
NCI-H650	1.05	0.862	0.839	0.824	0.639	0.537		0.366	0.359	0.314	0.447	0.371	0.403	0.352	0.316	0.53	0.309	0.393	0.376	0.331
NCI-H661	1.01	0.792	0.695	0.626	0.495	0.748	0.598	0.561	0.433	0.425	0.264	0.29	0.258	0.279	0.282	0.77	0.552	0.464	0.354	0.313
NCI-H727	0.879	0.727	0.636	0.596	0.5	1.25	1.03	1.01	1.01	0.909	0.472	0.453	0.422	0.467	0.362	0.468	0.477	0.367	0.494	0.438
NCI-H838	1.03	0.955	0.71	0.823	0.515	0.71	0.623	0.543	0.478	0.314	0.628	0.562	0.402	0.467	0.202	0.318	0.348	0.308	0.317	0.185

Reference: the supplement of paper PMC10307832
